Laboratory results: US20180057505A1, “BICYCLIC HETEROARYL COMPOUNDS USEFUL AS INHIBITORS OF THE PAR-2 SIGNALING PATHWAY” (VERTEX PHARMACEUTICALS INCORPORATED, priority 2015, published 2018)

Columns and labels:
Type in all cases: cell-based
[1] = molecular target: T1, PAR2 (HT-29 cells) (Homo sapiens, UniProt P55085); test: Ca FLIPR TETRA assay, ANTAGONIST mode, activator 3.1 U/mL trypsin; settings: HT-29 cells, activator 3.1 U/mL trypsin
T1 construct: host or cells: HT-29
T1 sequence (P55085 26-397): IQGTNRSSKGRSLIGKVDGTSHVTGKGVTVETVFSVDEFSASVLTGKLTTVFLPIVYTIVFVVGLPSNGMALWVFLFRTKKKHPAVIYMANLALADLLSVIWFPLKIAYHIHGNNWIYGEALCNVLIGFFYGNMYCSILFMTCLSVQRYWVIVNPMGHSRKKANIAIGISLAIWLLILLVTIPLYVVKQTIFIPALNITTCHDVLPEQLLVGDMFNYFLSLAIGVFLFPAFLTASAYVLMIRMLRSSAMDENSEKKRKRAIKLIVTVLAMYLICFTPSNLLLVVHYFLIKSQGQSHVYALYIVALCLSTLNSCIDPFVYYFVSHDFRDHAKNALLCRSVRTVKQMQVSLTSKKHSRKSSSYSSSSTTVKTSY
Protocol: (§1) Protocol for Testing PAR2 Compounds in ANTAGONIST Mode Using the Ca FLIPR^TETRA Assay (384 Well).
(§2) 23000 HT-29 cells (ATCC# HTB-38) were plated in 384-well black, transparent-flat bottom plates and incubated in 25 uL of 1% FBS/McCoy's media ON at 37° C. under an atmosphere of 5% CO2. The following day, 25 uL FLIPR calcium 5 Molecular Devices assay reagent (Cat: R-8186) was added. Plates were incubated at 37° C. and r. t. for 45 min and 15 min, respectively. Compounds dilutions were prepared in 100% DMSO using a Biomek FX and diluted 20-fold in HBSS and then 5.5 uL was added directly to the cells by the FLIPR^TETRA (10× dilution) using FLIPR Tetra Pipette tips, black, non-sterile, 384 Molecular Devices (Cat: 9000-0764).
(§3) A first read was performed to determine whether the test compounds on their own can activate Ca^2+ responses. The cells were incubated with the compounds for 30 min at r. t. and then read in ANTAGONIST mode in the same plate by stimulating with 6.2 uL of a fixed concentration of the activator: final concentrations 8 μM SLIGKV, 1 U/mL Thrombin, 3.1 U/mL trypsin, or 0.6 μM UTP.

[2] = molecular target: T1, PAR2 (HT-29 cells); test: Ca FLIPR TETRA assay, ANTAGONIST mode, activator 8 μM SLIGKV; settings: HT-29 cells, activator 8 μM SLIGKV
Protocol: as §1, §2, §3

[3] = tested on: UTP-stimulated Ca2+ response in HT-29 cells; test: Ca FLIPR TETRA assay, ANTAGONIST mode, activator 0.6 μM UTP; settings: for IC50 / inhibition at 50 µM: Homo sapiens; for IC50: HT-29 cells, activator 0.6 μM UTP; for inhibition at 50 µM: HT-29
Protocol: as §1, §2, §3

[4] = tested on: Thrombin-stimulated Ca2+ response in HT-29 cells; test: Ca FLIPR TETRA assay, ANTAGONIST mode, activator 1 U/mL Thrombin; settings: for IC50: HT-29 cells, activator 1 U/mL Thrombin
Protocol: as §1, §2, §3

[5] = maximal antagonist concentration per Method (A: 0.1, 1 or 2 μM; B: 50 μM)
[6] = Method A: maximal concentration of antagonist 0.1, 1 or 2 μM

SMILES	IC50 [1, 5] [nM]	IC50 [2, 5] [nM]	IC50 [4] [nM]	IC50 [1, 6] [nM]	IC50 [2, 6] [nM]	IC50 [3] [nM]	IC50 ([4]; Homo sapiens) [nM]	UTP, % @ 50 ([3]; @ 50 (μM)) [% @ 50]	inhibition at 50 µM ([3]; @ 50 (μM)) [%]	Thrombin, % @ 50 ([4]; @ 50 (μM)) [% @ 50]
CC(C)c1cc(-c2ccc(F)cc2)nc2cc(C(=O)N3CCN(C(=O)C4CC4(F)F)CC3(C)C)oc12 (single isomer, unassigned) [Example I-76]	100	33	> 50000					56		
CC(C)c1cc(-c2ccc(F)cc2)nc2cc(C(=O)N3CCN(C(=O)C4(O)CCC4)CC3(C)C)oc12 [Example I-8]	28	29				20000	3600			
CC(C)c1cc(-c2ccc(F)cc2)nc2cc(C(=O)N3CCN(C(=O)CC#N)CC3(C)C)oc12 [Example I-9]	83	90				4500	9600			
CC(C)c1cc(-c2ccc(F)cc2)nc2cc(C(=O)N3CCN(C(=O)C4CCCO4)CC3(C)C)oc12 (stereo not drawn) [Example I-10]	27	23				16000	15000			
CC(C)c1cc(-c2ccc(F)cc2)nc2cc(C(=O)N3CCN(C(=O)c4ccccc4)CC3(C)C)oc12 [Example I-11]	3.5	2.4					1400		59	
CC(C)c1cc(-c2ccc(F)cc2)nc2cc(C(=O)N3CCN(C(=O)C(O)C(C)C)CC3(C)C)oc12 (stereo not drawn) [Example I-12]	8.6	8.3				5800	8700			
CC(C)c1cc(-c2ccc(F)cc2)nc2cc(C(=O)N3CCN(C(=O)c4ccno4)CC3(C)C)oc12 [Example I-13]	4.5	3				1200	1000			
CC(C)c1cc(-c2ccc(F)cc2)nc2cc(C(=O)N3CCN(C(=O)[C@H](C)O)CC3(C)C)oc12 [Example I-15]	190	230				14000	14000			
COCC(=O)N1CCN(C(=O)c2cc3nc(-c4ccc(F)cc4)cc(C(C)C)c3o2)C(C)(C)C1 [Example I-17]	67	59				15000	14000			
CC(C)c1cc(-c2ccc(F)cc2)nc2cc(C(=O)N3CCN(C(=O)[C@H](O)CC(C)(C)C)CC3(C)C)oc12 [Example I-18]	1.1	1.4				17000	7900			
CC(C)c1cc(-c2ccc(F)cc2)nc2cc(C(=O)N3CCN(C(=O)C4(C)CC4)CC3(C)C)oc12 [Example I-19]	4.4	5.6				5700	10000			
CC#CC(=O)N1CCN(C(=O)c2cc3nc(-c4ccc(F)cc4)cc(C(C)C)c3o2)C(C)(C)C1 [Example I-20]	10	11				1500	7100			
CC(C)c1cc(-c2ccc(F)cc2)nc2cc(C(=O)N3CCN(C(=O)C4CC4(C)C)CC3(C)C)oc12 (stereo not drawn) [Example I-22]	2	2.4					> 50000		64	
CC(C)c1cc(-c2ccc(F)cc2)nc2cc(C(=O)N3CCN(C(=O)C4(O)CCOCC4)CC3(C)C)oc12 [Example I-23]	71	80				11000	7800			
CC(=O)N1CCN(C(=O)c2cc3nc(-c4ccc(F)cc4)cc(C(C)C)c3o2)C(C)(C)C1 [Example I-24]	44	48				9900	8700			
CC1(c2cc(-c3ccc(F)cc3)nc3cc(C(=O)N4CCN(C(=O)C5(O)CC5)CC4(C)C)oc23)CC1 [Example I-26]	8	6.1				7000	4800			

Continued, in another order:

IC50 [1, 5] [nM]	IC50 [2, 5] [nM]	IC50 [4] [nM]	IC50 [1, 6] [nM]	IC50 [2, 6] [nM]	IC50 [3] [nM]	IC50 ([4]; Homo sapiens) [nM]	SMILES	UTP, % @ 50 ([3]; @ 50 (μM)) [% @ 50]	inhibition at 50 µM ([3]; @ 50 (μM)) [%]	Thrombin, % @ 50 ([4]; @ 50 (μM)) [% @ 50]
			1.7	1.2	> 2000	> 2000	CC(CC(=O)N1CCN(C(=O)c2cc3nc(-c4ccc(Cl)c(F)c4)cc(C(C)(C)C)c3o2)C(C)(C)C1)C(=O)O (single isomer, unassigned) [Example I-513]			
		> 2000	1.1	1.3			CC(CC(=O)N1CCN(C(=O)c2cc3nc(-c4ccc(Cl)c(F)c4)cc(C(C)(C)C)c3o2)C(C)(C)C1)C(=O)O (single isomer, unassigned) [Example I-514]			
64	68				20000	19000	CC(C)c1cc(-c2ccc(F)cc2)nc2cc(C(=O)N3CCN(C(=O)C(C)(C)O)CC3(C)C)oc12 [Example I-1]			
29	22				> 50000	> 50000	CC(C)(C)OC(=O)N1CCN(C(=O)c2cc3nc(-c4ccc(F)cc4)cc(Cl)c3o2)C(C)(C)C1 [Example I-2]			
810	710				18000	26000	Cc1cc(-c2ccc(F)cc2)nc2cc(C(=O)N3CCN(C(=O)C(C)(C)O)CC3(C)C)oc12 [Example I-3]			
190	210				12000	8400	CCc1cc(-c2ccc(F)cc2)nc2cc(C(=O)N3CCN(C(=O)C(C)(C)O)CC3(C)C)oc12 [Example I-4]			
160	120				8800	11000	CC(C)(O)C(=O)N1CCN(C(=O)c2cc3nc(-c4ccc(F)cc4)cc(C4CC4)c3o2)C(C)(C)C1 [Example I-5]			
4.2	3.2				36000	> 50000	CC(C)c1cc(-c2ccc(F)cc2)nc2cc(C(=O)N3CCN(C(=O)OC(C)(C)C)CC3(C)C)oc12 [Example I-6]			
20	23				2700	3100	CC(C)c1cc(-c2ccc(F)cc2)nc2cc(C(=O)N3CCNC(=O)C3(C)C)oc12 [Example I-7]			
3	2.8						CC(C)c1cc(-c2ccc(F)cc2)nc2cc(C(=O)N3CCN(C(=O)C(C)(C)C)CC3(C)C)oc12 [Example I-14]		59	57
6.8	7.2					6900	CC(C)c1cc(-c2ccc(F)cc2)nc2cc(C(=O)N3CCN(C(=O)C(C)(C)F)CC3(C)C)oc12 [Example I-16]		61	
2.6	1.4					> 50000	CC(C)c1cc(-c2ccc(F)cc2)nc2cc(C(=O)N3CCN(C(=O)CC(C)(C)C)CC3(C)C)oc12 [Example I-21]		59	
18	14				2700	4300	CC1(c2cc(-c3ccc(F)cc3)nc3cc(C(=O)N4CCNC(=O)C4(C)C)oc23)CC1 [Example I-25]			
7.9	9.2						CC(C)(C)c1cc(-c2ccc(Cl)cc2)nc2cc(C(=O)N3CCNC(=O)C3(C)C)oc12 [Example I-157]			
5	4.8						CC(C)(C)c1cc(-c2ccc(Cl)c(F)c2)nc2cc(C(=O)N3CCNC(=O)C3(C)C)oc12 [Example I-176]			
6.1	3.2						CC(C)(C)c1cc(-c2ccc(Cl)c(F)c2)nc2cc(C(=O)N3CCN(c4nc(C(=O)O)co4)CC3(C)C)oc12 [Example I-290]			
			9.5	12			CC(C)(C)c1cc(-c2ccc(Cl)cc2)nc2cc(C(=O)N3CCN(c4cnccn4)CC3(C)C)oc12 [Example I-368]			
